Results on 21 molecules are retold here after patent US8883771B2, “Bivalent inhibitors of IAP proteins and therapeutic methods using the same” (The Regents of the University of Michigan, priority 2012, dated 2014).

Like-named read-outs stand apart in the source and are kept apart here.

The test system of experiment [1] is MDA-MB-231 breast cancer cell line. As to the kind of experiment: Inhibition of cell growth in MDA-MB-231 breast cancer cell line. Type of experiment: cell-based, human.
For experiment [2], the system named is SK-OV-3 ovarian cancer cell line. Put plainly: Inhibition of cell growth in SK-OV-3 ovarian cancer cell line. The format is cell-based, human.
For experiment [3], the target named is cIAP-2 BIR3 (residues 238-349) (Homo sapiens (Human), UniProt Q13489). Put plainly: Fluorescence polarization (FP) based competitive binding assay, cIAP-2 BIR3. Conditions: read-out: Binding Affinities IC50 (nM) cIAP2 Protein. On the procedure:
(§1) For cIAP-1 BIR3 and cIAP-2 BIR3 assays, a fluorescently labeled Smac mimetic (Smac-2F) was used as the fluorescent probe. The Kd values of Smac-2F to cIAP-1 BIR3 and cIAP-2 BIR3 were determined by monitoring the total fluorescence polarization of mixtures composed with the fluorescent probe at a fixed concentration and proteins with increasing concentrations up to full saturation. Fluorescence polarization values were measured using the Infinite M-1000 plate reader (Tecan U.S., Research Triangle Park, N.C.) in Microfluor 2 96-well, black, round-bottom plates (Thermo Scientific). To each well, 1 nM of SMAC-2F and increasing concentrations of protein were added to a final volume of 125 μl in the assay buffer (100 mM potassium phosphate, pH 7.5, 100 μg/ml bovine γ-globulin, 0.02% sodium azide, Invitrogen, with 4% DMSO). Plates were incubated at room temperature for 1-2 hours and mixed with gentle shaking to assure equilibrium. […] Equilibrium dissociation constants (Kd) were then calculated by fitting the sigmoidal dose-dependent FP increases as a function of protein concentrations using Graphpad Prism 5.0 software (Graphpad Software, San Diego, Calif.).
(§2) Mixtures of 5 μl of the tested compounds in DMSO and 120 μl of preincubated protein/tracer complex in the assay buffer (100 mM potassium phosphate, pH 7.5, 100 μg/ml bovine γ-globulin, 0.02% sodium azide, Invitrogen) were added into assay plates and incubated at room temperature for 2 hours with gentle shaking. Final concentrations of proteins and probes were 3 nM and 1 nM, 5 nM and 1 nM for assays for cIAP-1 BIR3 and cIAP-2 BIR3, respectively. […] FP values were measured as described above. IC50 values were determined by nonlinear regression fitting of the competition curves. The Ki values of competitive inhibitors were calculated using the derived equation described previously, based upon the measured IC50 values, the Kd values of the probe to different proteins, and the concentrations of the proteins and probes in the competitive assays.
Background: In fluorescence polarisation assays a small probe gives low polarisation when free and higher when bound to something large.

The target in experiment [4] is XIAP linker-BIR2-BIR3 (residues 120-356) (Homo sapiens (Human), UniProt P98170). Put plainly: Fluorescence polarization (FP) based competitive binding assay, XIAP linker-BIR2-BIR3. As to conditions: read-out: Binding Affinities IC50 (nM) XIAP Protein. On the procedure:
as §1, §2
The FP-based assay for XIAP linker-BIR2-BIR3 protein was performed with the same procedures. In this assay, a bivalent fluorescently tagged peptidic Smac mimetic (Smac-1F) was used as the fluorescent probe whose Kd value to XIAP linker-BIR2-BIR3 was determined similarly through the saturation experiments. 0.01% of Triton X-100 was added in the assay buffer to achieve stable fluorescence and polarization value of the dimeric fluorescent probe. Final protein and probe concentrations utilized in the competitive assay were 3 nM and 1 nM, respectively.

The target in experiment [5] is cIAP1-BIR3 (residues 253-363) (Homo sapiens (Human), UniProt Q13490). As to the kind of experiment: Fluorescence polarization (FP) based competitive binding assay, cIAP1-BIR3. Conditions: Smac-2F probe, read-out: Binding Affinities IC50 (nM) cIAP1 Protein. The procedure: as §1, §2
Where [6] appears, read: Homo sapiens, MDA-MB-231, MDA-MB-231 breast cancer cell line.
The mark [7] stands for this setting: Homo sapiens, MDA-MB-231 breast cancer cell line.
Setting [8] is: Homo sapiens, SK-OV-3 ovarian cancer cell line.
[9] abbreviates: Homo sapiens, SK-OV-3, SK-OV-3 ovarian cancer cell line.
Setting [10] is: MDA-MB-231 breast cancer cell line.
Where [11] appears, read: SK-OV-3 ovarian cancer cell line.

Turning to `CN[C@@H](C)C(=O)N[C@H]1CN(C(=S)Nc2ccc(Cc3ccc(NC(=S)N4CC[C@H]5CC[C@@H](C(=O)NC(c6ccccc6)c6ccccc6)N5C(=O)[C@@H](NC(=O)[C@H](C)NC)C4)cc3)cc2)CC[C@H]2CCC(C(=O)NC(c3ccccc3)c3ccccc3)N2C1=O` (some centres unmarked) [Example 18], the half-inhibitory concentration (IC50) (in general, the concentration needed to halve the response being measured) in experiment [1] (setting [6]) is below 100 nM. `CN[C@@H](C)C(=O)N[C@H]1CN(C(=O)NCCCCCCNC(=O)N2CC[C@H]3CC[C@@H](C(=O)N[C@H]4C[C@H](c5ccccc5)C4)N3C(=O)[C@@H](NC(=O)[C@H](C)NC)C2)CC[C@H]2CCC(C(=O)N[C@H]3C[C@H](c4ccccc4)C3)N2C1=O` (some centres unmarked) [Example 48]: the IC50 in experiment [1] (setting [7]) and in experiment [2] (setting [8]) was below 10000 nM each time. With `CN[C@@H](C)C(=O)N[C@H]1CN(C(=O)Nc2ccc(NC(=O)N3CC[C@H]4CC[C@@H](C(=O)N[C@H]5C[C@@H]5c5ccccc5F)N4C(=O)[C@@H](NC(=O)[C@H](C)NC)C3)cc2)CC[C@H]2CC[C@@H](C(=O)N[C@H]3C[C@@H]3c3ccccc3F)N2C1=O` [Example 27], the IC50 in experiment [1] (setting [6]) and in experiment [2] (setting [9]) was below 5000 nM in each case. Take `CN[C@@H](C)C(=O)N[C@H]1CN(C(=O)Nc2ccc(-c3ccc(NC(=O)N4CC[C@H]5CC[C@@H](C(=O)NC(c6ccccc6)c6ccccc6)N5C(=O)[C@@H](NC(=O)[C@H](C)NC)C4)c(C)c3)cc2C)CC[C@H]2CCC(C(=O)NC(c3ccccc3)c3ccccc3)N2C1=O` (some centres unmarked) [Example 15]: the half-maximal inhibitory concentration (IC50) in experiment [1] (setting [6]) and in experiment [2] (setting [9]) was below 1000 nM throughout. With `CN[C@@H](C)C(=O)N[C@H]1CN(C(=O)Nc2ccc(NC(=O)N3CC[C@H]4CC[C@@H](C(=O)N[C@H]5C[C@@H]5c5ccc(C(F)(F)F)cc5)N4C(=O)[C@@H](NC(=O)[C@H](C)NC)C3)cc2)CC[C@H]2CC[C@@H](C(=O)N[C@H]3C[C@@H]3c3ccc(C(F)(F)F)cc3)N2C1=O` [Example 35], the IC50 in experiment [1] (setting [6]) and in experiment [2] (setting [9]) was below 10000 nM in each case. In experiment [1] (setting [6]), `CN[C@@H](C)C(=O)N[C@H]1CN(C(=O)Nc2ccc(CCc3ccc(NC(=O)N4CC[C@H]5CC[C@@H](C(=O)NC(c6ccccc6)c6ccccc6)N5C(=O)[C@@H](NC(=O)[C@H](C)NC)C4)cc3)cc2)CC[C@H]2CCC(C(=O)NC(c3ccccc3)c3ccccc3)N2C1=O` (some centres unmarked) [Example 17] showed an IC50 below 100 nM. In the case of `CN[C@@H](C)C(=O)N[C@H]1CN(C(=O)NCCCCCCNC(=O)N2CC[C@H]3CC[C@@H](C(=O)NC4Cc5ccccc5C4)N3C(=O)[C@@H](NC(=O)[C@H](C)NC)C2)CC[C@H]2CCC(C(=O)NC3Cc4ccccc4C3)N2C1=O` (some centres unmarked) [Example 45], the half-maximal inhibitory concentration (IC50) in experiment [1] (setting [6]) and in experiment [2] (setting [9]) was below 1000 nM throughout. Take `CN[C@@H](C)C(=O)N[C@H]1CN(C(=O)Nc2ccc(NC(=O)N3CC[C@H]4CC[C@@H](C(=O)N[C@@H]5C[C@@H]5c5ccccc5)N4C(=O)[C@@H](NC(=O)[C@H](C)NC)C3)cc2)CC[C@H]2CC[C@@H](C(=O)N[C@@H]3C[C@@H]3c3ccccc3)N2C1=O` (stereo in doubt) [Example 26]: the IC50 in experiment [1] (setting [10]) and in experiment [2] (setting [11]) was below 1000 nM throughout. Take `CN[C@@H](C)C(=O)N[C@H]1CN(C(=O)NCc2cccc(CNC(=O)N3CC[C@H]4CC[C@@H](C(=O)N[C@H]5C[C@@H]5c5ccccc5)N4C(=O)[C@@H](NC(=O)[C@H](C)NC)C3)c2)CC[C@H]2CCC(C(=O)N[C@H]3C[C@@H]3c3ccccc3)N2C1=O` (some centres unmarked) [Example 38]: the IC50 in experiment [1] (setting [6]) and in experiment [2] (setting [9]) was below 10000 nM each time. For the molecule `CN[C@@H](C)C(=O)N[C@H]1CN(S(=O)(=O)c2cccc(S(=O)(=O)N3CC[C@H]4CC[C@@H](C(=O)NC(c5ccccc5)c5ccccc5)N4C(=O)[C@@H](NC(=O)[C@H](C)NC)C3)c2)CC[C@H]2CCC(C(=O)NC(c3ccccc3)c3ccccc3)N2C1=O` (some centres unmarked) [Example 23], the IC50 in experiment [1] (setting [6]) and in experiment [2] (setting [9]) was below 100 nM in each case.

As for `CN[C@@H](C)C(=O)N[C@H]1CN(C(=O)NCCCCCCNC(=O)N2CC[C@H]3CC[C@@H](C(=O)N[C@H]4CC[C@@H]4c4ccccc4)N3C(=O)[C@@H](NC(=O)[C@H](C)NC)C2)CC[C@H]2CCC(C(=O)N[C@H]3CC[C@@H]3c3ccccc3)N2C1=O` (some centres unmarked) [Example 47], the half-inhibitory concentration (IC50) in experiment [1] (setting [7]) and in experiment [2] (setting [8]) was below 1000 nM in each case. As for `CN[C@@H](C)C(=O)N[C@H]1CN(C(=O)Nc2ccc(NC(=O)N3CC[C@H]4CC[C@@H](C(=O)N[C@@H]5C[C@@H]5c5ccccc5)N4C(=O)[C@@H](NC(=O)[C@H](C)NC)C3)cc2)CC[C@H]2CC[C@@H](C(=O)N[C@@H]3C[C@@H]3c3ccccc3)N2C1=O` [Example 25], the half-maximal inhibitory concentration (IC50) in experiment [1] (setting [6]) and in experiment [2] (setting [9]) was below 1000 nM throughout. For `CN[C@@H](C)C(=O)N[C@H]1CN(C(=O)Nc2ccc(NC(=O)N3CC[C@H]4CC[C@@H](C(=O)N[C@@H]5C[C@H]5c5ccccc5)N4C(=O)[C@@H](NC(=O)[C@H](C)NC)C3)cc2)CC[C@H]2CC[C@@H](C(=O)N[C@@H]3C[C@H]3c3ccccc3)N2C1=O` [Example 30], the IC50 in experiment [1] (setting [6]) and in experiment [2] (setting [9]) was below 10000 nM throughout. Consider `CN[C@@H](C)C(=O)N[C@H]1CN(C(=O)NCCCCCCNC(=O)N2CC[C@H]3CC[C@@H](C(=O)N[C@H]4C[C@H](c5ccccc5)C4)N3C(=O)[C@@H](NC(=O)[C@H](C)NC)C2)CC[C@H]2CCC(C(=O)N[C@H]3C[C@H](c4ccccc4)C3)N2C1=O` (some centres unmarked) [Example 49], for which the IC50 in experiment [3] (FP competitive assay, Smac-2F probe) was below 5000 nM; in experiment [4] it was below 1000 nM; in experiment [5], below 1000 nM. Regarding `CN[C@@H](C)C(=O)N[C@H]1CN(C(=O)Oc2ccc(C(C)(C)c3ccc(OC(=O)N4CC[C@H]5CC[C@@H](C(=O)NC(c6ccccc6)c6ccccc6)N5C(=O)[C@@H](NC(=O)[C@H](C)NC)C4)cc3)cc2)CC[C@H]2CCC(C(=O)NC(c3ccccc3)c3ccccc3)N2C1=O` (some centres unmarked) [Example 22], the IC50 was below 100 nM in experiment [1] (setting [6]) and below 1000 nM in experiment [2] (setting [9]). On to `CN[C@@H](C)C(=O)N[C@H]1CN(C(=S)Nc2ccc(NC(=S)N3CC[C@H]4CC[C@@H](C(=O)NC(c5ccccc5)c5ccccc5)N4C(=O)[C@@H](NC(=O)[C@H](C)NC)C3)cc2)CC[C@H]2CCC(C(=O)NC(c3ccccc3)c3ccccc3)N2C1=O` (some centres unmarked) [Example 16], for which, in experiment [1] (setting [6]), the concentration for half-maximal inhibition (IC50) was below 100 nM. Turning to `CNCC(=O)N[C@H]1CN(C(=O)N2CCN(C(=O)N3CC[C@H]4CC[C@@H](C(=O)NC(c5ccccc5)c5ccccc5)N4C(=O)[C@@H](NC(=O)[C@H](C)NC)C3)CC2)CC[C@H]2CCC(C(=O)NC(c3ccccc3)c3ccccc3)N2C1=O` (some centres unmarked) [Example 20], the half-inhibitory concentration (IC50) in experiment [1] (setting [6]) and in experiment [2] (setting [9]) was below 10000 nM throughout. In the case of `CN[C@@H](C)C(=O)N[C@H]1CN(C(=O)NCCCCCCNC(=O)N2CC[C@H]3CC[C@@H](C(=O)NCCc4ccccc4)N3C(=O)[C@@H](NC(=O)[C@H](C)NC)C2)CC[C@H]2CCC(C(=O)NCCc3ccccc3)N2C1=O` (some centres unmarked) [Example 46], the IC50 in experiment [1] (setting [6]) and in experiment [2] (setting [9]) was below 1000 nM throughout. For `CN[C@@H](C)C(=O)N[C@H]1CN(C(=O)NCCCCCCNC(=O)N2CC[C@H]3CC[C@@H](C(=O)N[C@H]4CCCC[C@@H]4c4ccccc4)N3C(=O)[C@@H](NC(=O)[C@H](C)NC)C2)CC[C@H]2CCC(C(=O)N[C@H]3CCCC[C@@H]3c3ccccc3)N2C1=O` (some centres unmarked) [Example 39], the IC50 in experiment [1] (setting [10]) and in experiment [2] (setting [11]) was below 1000 nM in each case.

As to `CN[C@@H](C)C(=O)N[C@H]1CN(C(=O)NCCCCCCNC(=O)N2CC[C@H]3CC[C@@H](C(=O)N[C@H]4C[C@@H](c5ccccc5)C4)N3C(=O)[C@@H](NC(=O)[C@H](C)NC)C2)CC[C@H]2CCC(C(=O)N[C@H]3C[C@@H](c4ccccc4)C3)N2C1=O` (some centres unmarked) [Example 50], the IC50 in experiment [3], in experiment [4] and in experiment [5] was below 1000 nM in each case. For `CN[C@@H](C)C(=O)N[C@H]1CN(C(=O)Nc2ccc(NC(=O)N3CC[C@H]4CC[C@@H](C(=O)N[C@H]5C[C@@H]5c5ccccc5)N4C(=O)[C@@H](NC(=O)[C@H](C)NC)C3)cc2)CC[C@H]2CC[C@@H](C(=O)N[C@H]3C[C@@H]3c3ccccc3)N2C1=O` [Example 31], the IC50 in experiment [1] (setting [6]) and in experiment [2] (setting [9]) was below 1000 nM each time.
